Our source for the EC50 values is US12134610B2, “Somatostatin subtype-2 receptor (SST2R) targeted therapeutics and uses thereof” (priority 2022, dated 2024).

Type in all cases: cell-based
Assay [1] relates to NCI-H524 (ATCC) human small cell lung cancer cells. On the procedure: SMDCs of the present invention were assessed in an in vitro assay evaluating the inhibition of cell proliferation. NCI-H524 (ATCC) human small cell lung cancer cells were plated in 96-well V-bottom plates (Costar) at a concentration of 5,000 cells/well. 24 h later, the cells were treated for 2 h with a SMDC. SMDC starting dose was 1 uM and two-fold serial dilutions were done for a total of 11 points. After 2 h of treatment, cells were spun down, and the drug-containing media was removed, and fresh complete media was added and used to resuspend the cells, which were spun again. After removal of the media, the cells were resuspended in complete medium and incubated for an additional 70 h. Cell proliferation was assessed using the CellTiter Glo Assay according to the standard protocol (Promega). Luminescence was measured using a TECAN plate reader. Percent proliferation inhibition was calculated using the following formula: % inhibition=(Luminescence Control−Luminescence Treatment)/Luminescence Control*100. IC50 curves were generated using the nonlinear regression analysis (four-parameter) with GraphPad Prism 9.

For another assay, the target named is T1, SST2 (Homo sapiens, UniProt P30874).
T1 construct: host or cells: PathHunter CHO-K1 SST2 cells
T1 sequence (P30874 whole entry): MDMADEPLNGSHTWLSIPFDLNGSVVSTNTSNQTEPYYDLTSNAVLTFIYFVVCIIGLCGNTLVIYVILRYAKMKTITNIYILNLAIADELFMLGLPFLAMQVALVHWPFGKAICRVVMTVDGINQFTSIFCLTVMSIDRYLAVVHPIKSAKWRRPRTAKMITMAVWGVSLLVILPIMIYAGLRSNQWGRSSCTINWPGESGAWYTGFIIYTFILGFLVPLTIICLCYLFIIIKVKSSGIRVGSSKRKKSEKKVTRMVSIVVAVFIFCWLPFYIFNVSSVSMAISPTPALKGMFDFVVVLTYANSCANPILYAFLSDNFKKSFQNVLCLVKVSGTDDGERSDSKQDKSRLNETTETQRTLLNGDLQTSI
The assay is described as follows: PathHunter CHO-K1 SST2 internalization assay. The conditions noted are these: PathHunter CHO-K1 SST2, 90 min. As for the experimental part:
SMDCs of the present invention were assessed in vitro using the human PathHunter CHO-K1 SST2 β-arrestin2 and PathHunter CHO-K1 SST2 Internalization Assays from DiscoverX. The CHO-K cells were seeded in 20 μLs of cell culture medium in a white-walled 384 well tissue culture-compatible plate at a density of 2500 cells/well. After a 48-hour incubation, cells were treated with 5 μLs of a 1:3 serially diluted SST2 SMDC prepared at 5× concentration with a final top compound concentration of 10 uM for 90 min at 37 C and in 5% CO2. 11 dilutions were tested as well as one treatment that was compound free. After incubation, the media containing treatments were discarded and 20 μL of a working solution of Beta-Glo from Promega Beta-Glo Assay System was added to each well. The plate was then incubated for 60 min at room temperature in the dark. Luminescence was measured using a Tecan plate reader. IC50 curves were generated using the nonlinear regression analysis (four-parameters) with GraphPad Prism 9. Results were the average of duplicates and are corrected for background.

The target in assay [2] is T2, human somatostatin receptor subtype 2 (Homo sapiens, UniProt P30874).
T2 construct: expressed in transfected cells
T2 sequence (P30874 whole entry): as above
The assay is described as follows: Functional cAMP assay for SSTR2 agonists (HTRF) in CHO-K1 cells. The following applies: CHO-K1 cells stably expressing human SST2, 20 min. An excerpt:
General overview: All five SSTR subtypes are Gi coupled G-protein coupled receptors (GPCRs) that lead to decreases in intracellular cyclic AMP (cAMP) when activated by an agonist. Therefore, measurement of intracellular cAMP levels can be used to assess whether compounds of the invention are agonists of SSTR subtypes (John Kelly, Troy Stevens, W. Joseph Thompson, and Roland Seifert, Current Protocols in Pharmacology, 2005, 2.2.1-2.2). One example of an intracellular cAMP assay is described below.
Functional Assay for SSTR2 Agonists
Four days prior to the assay, 2,000 Chinese hamster ovary cells (CHO-K1, ATCC #CCL-61) stably expressing the human somatostatin receptor subtype 2 are plated in each well of a 96-well tissue culture-treated plate in Ham's F12 growth media (ThermoFisher #10-080-CM) supplemented with 10% donor bovine serum (Gemini Bio-Products #100-506), 100 U/mL penicillin; 100 ug/mL streptomycin; 2 mM L-glutamine (Gemini Bio-Products #400-110) and 0.2 mg/mL hygromycin B (GoldBio #31282-04-9). The cells are cultured at 37° C., 5% CO2 and 95% humidity. cAMP is measured with HTRF dynamic cAMP assay (Cisbio, #62AM5PEJ) per manufacturer's instructions. On the day of the assay, the media is aspirated and the cells are treated with 50 μL of stimulation buffer supplemented with 10.2 mM 3-Isobutyl-1-methylxanthine (IBMX, Millipore Sigma #15879) and 1.6 μM NKH477 (Tocris #1603), plus various dilutions of SMDCs of the present invention. The cells are incubated for 20 minutes at 37° C. (the final concentration of the compounds of the invention are typically 0-10,000 nM). The cells are treated with 50 μL of lysis buffer (HRTF cAMP kit, Cisbio) and incubated at room temperature for 30 minutes with rotary shaking at 600 rpm, and then diluted with 150 μL of stimulation buffer and shaken for an additional five minutes at 300 rpm. The lysate is transferred to 384-well plates and incubated for 1-24 hours at room temperature, and cAMP accumulation is detected by d2-labeled cAMP and Anti-cAMP-Cryptate. The time-resolved fluorescent signal is read using a m1000 Pro (Tecan) or CLARIOStar (BMG Labtech) microplate reader, where the samples are excited with light at 340 nm and emission light is measured at 620 nm and 665 nm. The data is expressed as a calculation of the fluorescence ratio (665 nm/620 nm). The intracellular cAMP concentrations are calculated by regression to a standard curve and are plotted vs. the concentration of the compounds of the invention. The EC50 of the compounds are calculated using standard methods. All data manipulations are in GraphPad Prism v9 (GraphPad, San Diego, CA).

Molecules are shown by their SMILES. Where two headings read alike, the source gives them in different places. Starred links: 1 amine or outer side, 2 acyl side, 3 side chain; linkers in the order of their positions; H or OH if unused. Non-standard residues stand in square brackets, D forms with d. Residues, ends and D or L forms follow the SMILES beside them. *: point of attachment. PABC(3-O-βDGlc) = O=C(OCc1ccc(N[*:1])c(O[C@@H]2O[C@H](CO)[C@@H](O)[C@H](O)[C@H]2O)c1)[*:2]; X1 = Cc1cc(F)cc(-c2cnc(NCCNC(=O)CCOCCC(=O)*)c(-c3nc4ccc(Cl)cc4[nH]3)c2N2CCC(N)CC2)c1; Dolaproine = CO[C@@H]([C@@H]1CCCN1)[C@@H](C)C(=O)O; Dil = CC[C@H](C)[C@H](NC)[C@@H](CC(=O)O)OC; PABC = O=C(OCc1ccc(N[*:1])cc1)[*:2]; X2 = C[C@@H](N*)[C@@H](O)c1ccccc1; Cya = N[C@@H](CS(=O)(=O)O)C(=O)O; Cit = NC(=O)NCCC[C@H](N)C(=O)O; NMeV = CN[C@H](C(=O)O)C(C)C

Turning to `CC[C@H](C)[C@@H]([C@@H](CC(=O)N1CCC[C@H]1[C@H](OC)[C@@H](C)C(=O)N[C@H](C)[C@@H](O)c1ccccc1)OC)N(C)C(=O)[C@@H](NC(=O)[C@H](C(C)C)N(C)C(=O)OCc1ccc(NC(=O)[C@H](C)NC(=O)[C@@H](NC(=O)CCNCCC(=O)NCCNc2ncc(-c3cc(C)cc(F)c3)c(N3CCC(N)CC3)c2-c2nc3ccc(Cl)cc3[nH]2)C(C)C)c(O[C@@H]2O[C@H](C(=O)O)[C@@H](O)[C@H](O)[C@H]2O)c1)C(C)C` [Compound 155], the half-maximal effective concentration (EC50) stood at 71 nM in assay [1] (2 h), 29 nM at SST2 (read-out: Internalization EC50) and 0.24 nM in assay [2] (read-out: hSST2 cAMP Avg EC50).
In the same order, the values of `CCC(C)C(C(CC(=O)N1CCCC1C(OC)C(C)C(=O)NC(C)C(O)c1ccccc1)OC)N(C)C(=O)C(NC(=O)C(C(C)C)N(C)C(=O)OCc1ccc(NC(=O)[C@H](CCCNC(N)=O)NC(=O)[C@@H](NC(=O)CCOCCOCCOCCOCCC(=O)NCCNc2ncc(-c3cc(C)cc(F)c3)c(N3CCC(N)CC3)c2-c2nc3ccc(Cl)cc3[nH]2)C(C)C)cc1)C(C)C` (stereo in doubt) [Compound 25] are 25 nM, 27 nM and 0.34 nM.
`CC[C@H](C)[C@@H]([C@@H](CC(=O)N1CCC[C@H]1[C@H](OC)[C@@H](C)C(=O)N[C@H](C)[C@@H](O)c1ccccc1)OC)N(C)C(=O)[C@@H](NC(=O)[C@H](C(C)C)N(C)C(=O)OCc1ccc(NC(=O)[C@H](CCCNC(N)=O)NC(=O)[C@@H](NC(=O)[C@H](CS(=O)(=O)O)NC(=O)CCOCCOCCOCCOCCC(=O)NCCNc2ncc(-c3cc(C)cc(F)c3)c(N3CCC(N)CC3)c2-c2nc3ccc(Cl)cc3[nH]2)C(C)C)cc1)C(C)C` [Compound 45]: the concentration giving a half-maximal response (EC50) in assay [1] (2 h) came to 32 nM; at SST2 (read-out: Internalization EC50) it was 21 nM; in assay [2] (read-out: hSST2 cAMP Avg EC50) it was 0.12 nM.
With `CC[C@H](C)[C@@H]([C@@H](CC(=O)N1CCC[C@H]1[C@H](OC)[C@@H](C)C(=O)N[C@H](C)[C@@H](O)c1ccccc1)OC)N(C)C(=O)[C@@H](NC(=O)[C@H](C(C)C)N(C)C(=O)OCc1ccc(NC(=O)[C@H](CCCNC(N)=O)NC(=O)[C@@H](NC(=O)[C@H](CCC(=O)O)NC(=O)[C@H](CS(=O)(=O)O)NC(=O)CCOCCC(=O)NCCNc2ncc(-c3cc(C)cc(F)c3)c(N3CCC(N)CC3)c2-c2nc3ccc(Cl)cc3[nH]2)C(C)C)cc1)C(C)C` [Compound 113] (X1-[Cya]EV[Cit][PABC][NMeV]V[Dil][Dolaproine]-X2), the EC50 is 200 nM in assay [1] (2 h), 30 nM at SST2 (read-out: Internalization EC50) and 0.33 nM in assay [2] (read-out: hSST2 cAMP Avg EC50).
In the case of `CC[C@H](C)[C@@H]([C@@H](CC(=O)N1CCC[C@H]1[C@H](OC)[C@@H](C)C(=O)N[C@H](C)[C@@H](O)c1ccccc1)OC)N(C)C(=O)[C@@H](NC(=O)[C@H](C(C)C)N(C)C(=O)OCc1ccc(NC(=O)[C@H](C)NC(=O)[C@@H](NC(=O)[C@H](CCC(N)=O)NC(=O)CCCCCC(=O)NCCNc2ncc(-c3cc(C)cc(F)c3)c(N3CCC(N)CC3)c2-c2nc3ccc(Cl)cc3[nH]2)C(C)C)cc1C(=O)NCCN)C(C)C` [Compound 121], the EC50 is 0.62 nM in assay [1] (2 h), 3 nM on SST2 (read-out: Internalization EC50) and 0.45 nM in assay [2] (read-out: hSST2 cAMP Avg EC50).
In the same order, the values of `CC[C@H](C)[C@@H]([C@@H](CC(=O)N1CCC[C@H]1[C@H](OC)[C@@H](C)C(=O)N[C@H](C)[C@@H](O)c1ccccc1)OC)N(C)C(=O)[C@@H](NC(=O)[C@H](C(C)C)N(C)C(=O)OCc1ccc(NC(=O)[C@H](CCCNC(N)=O)NC(=O)[C@@H](NC(=O)CCOCCC(=O)NCCNc2ncc(-c3cc(C)cc(F)c3)c(N3CCC(N)CC3)c2-c2nc3ccc(Cl)cc3[nH]2)C(C)C)c(O[C@@H]2O[C@H](C(=O)O)[C@@H](O)[C@H](O)[C@H]2O)c1)C(C)C` [Compound 132] are 22 nM, 5.7 nM and 0.2 nM.
In the same order, the values of `COc1cc2cc(c1Cl)N(C)C(=O)CC(OC(=O)[C@@H](C)N(C)C(=O)CCS[C@H]1CC(=O)N(CC3CCC(C(=O)NCCCC[C@H](N)C(=O)NCCNc4ncc(-c5cc(C)cc(F)c5)c(N5CCC(N)CC5)c4-c4nc5ccc(Cl)cc5[nH]4)CC3)C1=O)[C@]1(C)OC1[C@@H](C)C1C[C@@](O)(NC(=O)O1)[C@H](OC)/C=C/C=C(\C)C2` (stereo partly drawn) [Compound 7] are 355 nM, 21 nM and 0.15 nM.
The corresponding values for `CC[C@H](C)[C@@H]([C@@H](CC(=O)N1CCC[C@H]1[C@H](OC)[C@@H](C)C(=O)N[C@H](C)[C@@H](O)c1ccccc1)OC)N(C)C(=O)[C@@H](NC(=O)[C@H](C(C)C)N(C)C(=O)OCc1ccc(NC(=O)[C@H](CCCNC(N)=O)NC(=O)[C@@H](NC(=O)CCCC(=O)N(C)CC(=O)N(C)CC(=O)N(C)CC(=O)NCCNc2ncc(-c3cc(C)cc(F)c3)c(N3CCC(N)CC3)c2-c2nc3ccc(Cl)cc3[nH]2)C(C)C)c(O[C@@H]2O[C@H](C(=O)O)[C@@H](O)[C@H](O)[C@H]2O)c1)C(C)C` [Compound 142] are 91 nM, 4.4 nM and 0.25 nM.
For `CC[C@@]1(O)C(=O)OCc2c1cc1n(c2=O)Cc2c-1nc1cc(F)c(C)c3c1c2[C@@H](NC(=O)OCc1ccc(NC(=O)[C@H](CCCNC(N)=O)NC(=O)[C@@H](NC(=O)CCOCCOCCOCCOCCC(=O)NCCNc2ncc(-c4cc(C)cc(F)c4)c(N4CCC(N)CC4)c2-c2nc4ccc(Cl)cc4[nH]2)C(C)C)cc1)CC3` [Compound 38], the EC50 worked out at 59.4 nM in assay [1] (2 h treatment, washout, additional 70 h, read-out: H524 EC50); 1 nM on SST2 (Internalization EC50 (nM)); 0.11 nM in assay [2] (hSST2 cAMP Avg EC50 (nM)).
On to `CC[C@H](C)[C@@H]([C@@H](CC(=O)N1CCC[C@H]1[C@H](OC)[C@@H](C)C(=O)N[C@H](C)[C@@H](O)c1ccccc1)OC)N(C)C(=O)[C@@H](NC(=O)[C@H](C(C)C)N(C)C(=O)OCc1ccc(NC(=O)[C@H](C)NC(=O)[C@@H](NC(=O)[C@H](CCC(=O)O)NC(=O)CCOCCC(=O)NCCNc2ncc(-c3cc(C)cc(F)c3)c(N3CCC(N)CC3)c2-c2nc3ccc(Cl)cc3[nH]2)C(C)C)c(O[C@@H]2O[C@H](CO)[C@@H](O)[C@H](O)[C@H]2O)c1)C(C)C` [Compound 67] (X1-EVA[PABC(3-O-βDGlc)][NMeV]V[Dil][Dolaproine]-X2), for which the 50% effective concentration (EC50) in assay [1] (2 h) came to 41 nM; on SST2 (read-out: Internalization EC50), 6.7 nM; in assay [2] (read-out: hSST2 cAMP Avg EC50) it was 0.19 nM.

As usually defined, the EC50 is the concentration needed to bring the measured effect to its halfway point.
